Literature values, collected in patent US20090175941A1, “Tablet-form slow-release preparation for vertigo” (priority 2005, published 2009).

solubility in water: approximately 2 mg/100 ml
SMILES: C(=C\c1ccccc1)/CN1CCN(C(c2ccccc2)c2ccccc2)CC1 [cinnarizine, 1-benzhydryl-4-trans-cinnamylpiperazine]
